4 molecules from US3979511A, “Inhibitors of reverse transcriptase enzymes” (Abbott Laboratories, priority 1974, dated 1976) can be followed below.

SMILES strings stand for the structures.

Data set [1] deals with T1, reverse transcriptase of Rous sarcoma virus (Rous sarcoma virus - Prague C, UniProt P03354).
T1 construct: alpha/beta heterodimer cut from Gag-Pol polyprotein; 3H-TTP incorporation
Briefly: Inhibition of reverse transcriptase activity in RSV particles (3H-thymidine triphosphate incorporation). Particulars: for inhibition at 400 µg/mL: 400 μg/ml., read-out: Percent Inhibition. The class given is biochemical. The protocol: Inhibition was directly related to drug concentration. […] Reverse transcriptase activities were measured from the incorporation of ^3 H-thymidine triphosphate into trichloroacetic acid insoluble counts according to a published method (Nature, 227, 563 (1970). The drug was dissolved in dimethylsulfoxide at a concentration of 10 mg./ml. ##SPC3##
Degrees of the inhibition are listed below in Table 1.

Data set [2] in a line: Drug control group: mortality of uninfected chicks given drug. The class given is in vivo, chickens. Particulars: Drug I control, 200 mg./kg. by gavage every other day, 25 birds. From the text:
(§1) To test the effectiveness of the present compounds, 12-day-old Cofal negative chicks were used. The chicks were purchased from SPAFA as 8-day-old embryonated eggs for the tests and comparison of the effectiveness of the inhibitors of the present invention. The chicks were divided into four groups of 25 birds per group:
(§2) Group 1 - Drug I control (9-0-methyloximinyl erythromycin A;
(§3) The medication with the virus and drug combinations was started by gavage two days before the chicks were infected with the virus. The chickens treated with Drug I, 9-0-methyloximinyl erythromycin A, received 200 mg./kg. every other day for the entire 35 days of the experiment. Each week the chickens were weighed and the drug level was adjusted to accommodate the new weight.
(§4) The chickens were observed daily for the 35 days that the experiment was allowed to continue.
(§5) On the last day, the 35th day, all surviving chickens were sacrificed, weighed and autopsied.

Data set [3] has as its system Rous sarcoma virus. The data set can be described thus: Blocking of transformation (focus formation) of chick embryonic fibroblasts by Rous sarcoma virus in tissue culture. The class given is cell-based. The protocol: In tissue culture, the effect of 9-0-methyloximinyl erythromycin A on the blocking of transformation of chick embryonic fibroblasts by Rous sarcoma virus is shown in Table 2. […] The assay was carried out according to a published method (J. Gen. Virol. I, 85 (1970).

In data set [4] the test system is Rous sarcoma virus. Briefly: Mortality of chicks infected intra-abdominally with Rous sarcoma virus. Particulars: for Probability (Fisher's exact probability for proportions): Virus + Drug I vs Virus; for Alive / Dead: Virus + Drug I, 200 mg./kg. by gavage every other day, 25 birds per group. The class given is in vivo, chickens.
Description: as §1, §2
Group 2 - Drug I + Rous sarcoma virus (RSV);
Group 3 - Rous sarcoma virus (infection control);
Group 4 - Normal control (sham media)
as §3
On the third day the chickens in Groups 2 and 3 were infected intra-abdominally with Rous sarcoma virus (RSV). The inoculum received by each bird was 0.2 ml. and contained approximately 100,000 viral particles. Group 4 received a sham inoculation of 0.2 ml. of sterile tissue culture media.
as §4, §5
The results of the experiment are provided in Table 3 which provides the following results: "Statistical Evaluation of Mortality of the Chickens".

The mark [5] stands for this setting: period 4 after infection (period = 6 days).
Where [6] appears, read: period 5 after infection (period = 6 days).
Where [7] appears, read: period 6 after infection (period = 6 days).

T1 sequence (P03354 709-1567): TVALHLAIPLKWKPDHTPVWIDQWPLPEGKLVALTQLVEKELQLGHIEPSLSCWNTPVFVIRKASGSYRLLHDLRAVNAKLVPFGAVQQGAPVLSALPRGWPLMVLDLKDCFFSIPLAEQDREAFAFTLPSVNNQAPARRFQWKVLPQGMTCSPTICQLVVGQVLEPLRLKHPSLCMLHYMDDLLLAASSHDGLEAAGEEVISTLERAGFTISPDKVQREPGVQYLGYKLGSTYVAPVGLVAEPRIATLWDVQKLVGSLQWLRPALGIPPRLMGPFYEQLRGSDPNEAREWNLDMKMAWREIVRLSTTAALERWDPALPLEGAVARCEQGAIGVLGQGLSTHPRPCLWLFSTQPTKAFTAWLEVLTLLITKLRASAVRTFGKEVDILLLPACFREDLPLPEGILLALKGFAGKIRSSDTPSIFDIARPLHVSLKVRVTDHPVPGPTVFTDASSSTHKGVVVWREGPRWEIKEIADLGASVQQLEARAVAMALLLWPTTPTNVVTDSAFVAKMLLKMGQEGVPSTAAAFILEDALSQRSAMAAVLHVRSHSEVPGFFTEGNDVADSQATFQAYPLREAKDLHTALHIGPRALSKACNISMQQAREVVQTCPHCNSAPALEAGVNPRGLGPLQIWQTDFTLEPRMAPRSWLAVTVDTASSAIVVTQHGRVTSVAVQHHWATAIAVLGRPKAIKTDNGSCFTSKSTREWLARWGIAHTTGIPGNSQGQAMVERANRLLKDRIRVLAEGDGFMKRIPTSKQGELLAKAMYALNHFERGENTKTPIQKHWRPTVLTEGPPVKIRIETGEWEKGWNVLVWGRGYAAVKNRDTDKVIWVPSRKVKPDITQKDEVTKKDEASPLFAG

Usually inhibition stands for the change of the read-out against control, counted positive when it falls. In the case of `CC[C@H]1OC(=O)[C@H](C)[C@@H](O[C@H]2C[C@@](C)(OC)[C@@H](O)[C@H](C)O2)[C@H](C)[C@@H](O[C@@H]2O[C@H](C)C[C@H](N(C)C)[C@H]2O)[C@](C)(O)C[C@@H](C)C(=NOCc2ccc(Cl)c(Cl)c2)[C@H](C)[C@@H](O)[C@H]1C` [9-O-(3,4-dichlorobenzyloximinyl) erythromycin B], the inhibition at 400 µg/mL in data set [1] turned out to be 69%.
On the same count and under the same terms, for `CCON=C1[C@H](C)C[C@@](C)(O)[C@H](O[C@@H]2O[C@H](C)C[C@H](N(C)C)[C@H]2O)[C@@H](C)[C@H](O[C@H]2C[C@@](C)(OC)[C@@H](O)[C@H](C)O2)[C@@H](C)C(=O)O[C@H](CC)[C@@](C)(O)[C@H](O)[C@H]1C` [9-O-ethyloximinyl erythromycin A] the value was 52%.
Regarding `CC[C@H]1OC(=O)[C@H](C)[C@@H](O[C@H]2C[C@@](C)(OC)[C@@H](O)[C@H](C)O2)[C@H](C)[C@@H](O[C@@H]2O[C@H](C)C[C@H](N(C)C)[C@H]2O)[C@](C)(O)C[C@@H](C)C(=NOC)[C@H](C)[C@@H](O)[C@]1(C)O` [9-O-methyloximinyl erythromycin A], the Alive came out at 25 in data set [2] (period 4 (period = 6 days)); 25 in data set [2] (period 5 (period = 6 days)); 25 in data set [2] (period 6 (period = 6 days)); 18 in the data set with Rous sarcoma virus [4] (setting [5]); 13 in the data set on Rous sarcoma virus [4] (setting [6]); 8 in the data set on Rous sarcoma virus [4] (setting [7]). Moreover, the Dead stood at 0 in data set [2] (period 4 (period = 6 days)); 0 in data set [2] (period 5 (period = 6 days)); 0 in data set [2] (period 6 (period = 6 days)); 7 in the data set with Rous sarcoma virus [4] (setting [5]); 12 in the data set on Rous sarcoma virus [4] (setting [6]); 17 in the data set on Rous sarcoma virus [4] (setting [7]). The molecule also showed an inhibition at 1 µg/mL in the data set on Rous sarcoma virus [3] (Rous sarcoma virus, Fibroblast, Drug Concentration 1 μg/ml) of 39%. In the data set on Rous sarcoma virus [3] (Rous sarcoma virus, Fibroblast, Drug Concentration 5 μg/ml), this molecule returned an inhibition at 5 µg/mL of 53%. The same molecule showed an inhibition at 10 µg/mL in the data set on Rous sarcoma virus [3] (Rous sarcoma virus, Fibroblast, Drug Concentration 10 μg/ml) of 95%. Moreover, the “inhibition of focus formation” value in the data set on Rous sarcoma virus [3] (drug levels of 5-10 μg/ml) is on record as “at least 50%”. Further, the “tumors in survivors at sacrifice and autopsy” value with Rous sarcoma virus [4] (RSV-infected birds that received Drug I 200 mg./kg. every other day, 35th day) was “had tumors in evidence”. The “Probability (Fisher's exact probability for proportions)” value in the data set on Rous sarcoma virus [4] (period 4 after infection) was “.02”; in the data set on Rous sarcoma virus [4] (period 5 after infection) it was “.006”; with Rous sarcoma virus [4] (period 6 after infection), “.036”. For the same molecule, the inhibition at 400 µg/mL in data set [1] worked out at 57%. The IC50 in data set [1] (RSV particles, drug dissolved in dimethylsulfoxide, read-out: Fifty percent inhibition of reverse transcriptase activity (converted)) was around 459 µM.
Take `CCCON=C1[C@H](C)C[C@@](C)(O)[C@H](O[C@@H]2O[C@H](C)C[C@H](N(C)C)[C@H]2O)[C@@H](C)[C@H](O[C@H]2C[C@@](C)(OC)[C@@H](O)[C@H](C)O2)[C@@H](C)C(=O)O[C@H](CC)[C@@](C)(O)[C@H](O)[C@H]1C` [9-O-propyloximinyl erythromycin A]: the inhibition at 400 µg/mL in data set [1] was 47%.
